Source: US20250345343A1, “PHARMACEUTICAL COMPOSITION FOR PREVENTION OR TREATMENT OF SOLID CANCER COMPRISING EPIDITHIODIOXOPIPERAZINE DERIVATIVE OR PHARMACEUTICALLY ACCEPTABLE SALT THEREOF” (priority 2019, published 2025)

What was measured:
[1] = test system: various cancer cell lines and three normal cells (MCF-10A, IMR90, and CCD-841); experiment: Cell viability assay (Cell Titer-Glo), cancer cells versus normal cells; assay type: cell-based; details: 50 nM and 200 nM
Source text: FIG. 5 is diagrams illustrating the cytotoxic effect of a synthetic epidithiodioxopiperazine derivative on various cancer cells and normal cells. (A) to (J) respectively illustrate the cell viability quantified by the Cell Titer-Glo assay system of breast cancer cells, lung cancer cells, stomach cancer cells, skin cancer cells, colon cancer cells, prostate cancer cells, pancreatic cancer cells, normal breast cells, normal fibroblasts, and normal epithelial cells after treating with the labelled ETP compound for 24 hours (n=3). And IC50 values are determined using a linear regression program (GraphPad Prism) and illustrated in (K).
In order to determine the IC50 value for examining cytotoxicity, the cells (2×10^5 cells/well) were aliquoted into 96-well plates and treated with the labelled compounds at various concentrations for 24 hours. The cell viability was measured using the Cell Titer-Glo Luminescence Assay Reagent Kit (Promega, G7570), and the luminescence was read using an Envision plate reader. The percentage of cell growth with respect to that in the vehicle control group (0.1% DMSO-treated cells) was calculated.

[2] = test system: MDA-MB-231, Hs-578T, A549, H460, MKN28, MKN74, SK-MEL-5, SK-MEL-28, RKO, HCT116, PC3 and Panc-1 cancer cells; experiment: Colony formation assay; assay type: cell-based; details: for colony formation inhibition: low concentrations (50 nM and 200 nM), 10 days
Procedure: The cells (2×10^3 cells/well) were cultured in 6-well plates for 24 hours, and then treated with the compounds of the present invention for 2 hours. The cells were placed in fresh complete media and additionally cultured for 10 days. The cells were washed with PBS and stained with crystal violet. Blue-stained colonies were manually counted.
Among the cancer cells prepared according to Experimental Example 1, breast cancer cell lines MDA-MB-231 and Hs-578T; lung cancer cell lines A549 and H460; stomach cancer cell lines MKN28 and MKN74; skin cancer cell lines SK-MEL-5 and SK-MEL-28; colon cancer cell lines RKO and HCT116; a prostate cancer cell line PC3; and a pancreatic cancer cell line Panc-1 were treated with DMSO as a control vehicle and synthetic epidithiodioxopiperazine derivatives A2, A5, and A10.

[3] = test system: patient-derived lung adenocarcinoma tumor; experiment: Patient-derived tumor xenograft experiment; assay type: in vivo, mice
Procedure: Animal experiments were approved by the Institutional Animal Care and Use Committee (IACUC) of Seoul National University College of Medicine and complied with ARRIVE (Animal Research: Reporting of In Vivo Experiments) guidelines. Patient-derived lung tumors were subcutaneously implanted into the backs of 4-week-old and 17-week-old NSG (NOD-scid-IL2Rgnull) and humanized NSG (HuNSG) mice, respectively. The compound represented by Chemical Formula 7 (A5, 300 mg/kg) and/or pembrolizumab (humanized anti-PD-1 antibody, 5 mg/kg) dissolved in PBS were intraperitoneally injected to the mice every 3 days for 3 weeks and every 5 days for 3 weeks, respectively. The tumors were allowed to grow for 28 days, excised, and quantified. The tumor volume was measured every 3 days using Vernier calipers and calculated using the following equation.
In the equation, a and b mean the superficial diameter of major axis and the superficial diameter of minor axis, respectively.
While the mouse models prepared by implanting a patient-derived lung adenocarcinoma tumor according to Experimental Example 10 were not treated, were treated only with a representative synthetic epidithiodioxopiperazine derivative A5, or were concurrently treated with A5 and pembrolizumab, a humanized antibody known to be used for cancer immunotherapy, the changes in volume of the tumor were periodically observed, and the results are illustrated in FIG. 15.

[4] = test system: breast cancer cell lines MDA-MB-231 and Hs-578T; experiment: Cell proliferation assay (WST-1): cytotoxicity and proliferation of breast cancer cells; assay type: cell-based; details: breast cancer cells
Procedure: (§1) The cells (2×10^3 cells/well) were cultured in 96-well plates for 24 hours, and then treated with the compound of the present invention for 2 hours. The cells were placed in fresh complete media and cultured for the labelled time. For cell proliferation, the cells were treated with WST-1 reagent for 1 hour, and the absorbance of the formazan product at 450 nm was measured using a UV/VIS ELISA reader.
(§2) Among the cancer cells prepared according to Experimental Example 1, breast cancer cell lines MDA-MB-231 and Hs-578T were treated with DMSO as a control vehicle and a natural epidithiodioxopiperazine derivative gliotoxin, the cytotoxicity and proliferation rate at each concentration of the treated compound were calculated according to Experimental Example 2, and the results are illustrated in FIG. 1.

[5] = as above; assay type: cell-based; details: human; up to a concentration of about 200 nM; breast cancer cells MDA-MB-231 and Hs-578T
Procedure: as §1, §2

[6] = test system: breast cancer cell lines MDA-MB-231 and Hs-578T; experiment: Migration assay (trans-well); assay type: cell-based; details: 24 hours
Procedure: The cells (2×10^5 cells/well) were cultured in 6-well plates for 24 hours, and then treated with the compounds of the present invention for 2 hours. After treatment, the cells were serum-starved by further culturing in fresh culture medium containing 0.5% FBS for 12 hours. The serum-starved cells (5×10^4 cells/well) were transferred to the upper chamber (8 μm pore size) of a 24-well trans-well culture plate (Costar) with the bottom layer pre-coated with 0.1% gelatin B (Sigma Aldrich). The lower chamber was filled with culture medium containing 20% FBS. Twenty-four hours after plating, non-migrated cells in the upper chamber were removed. After the cells which had not migrated from the upper chamber were removed, the upper chamber was fixed with methanol and stained with 0.6% hematoxylin (DAKO). The stained cells were photographed and counted. The number of migratory cells was determined by averaging the values from three wells.
Among the cancer cells prepared according to Experimental Example 1, breast cancer cell lines MDA-MB-231 and Hs-578T were treated with DMSO as a control vehicle and natural epidithiodioxopiperazine derivative gliotoxin, cell migration to the FBS-containing medium was observed and the number of migrated cells was counted according to Experimental Example 5, and the results are illustrated in FIGS. 3 and 4.

[7] = test system: breast cancer cell lines MDA-MB-231 and Hs-578T; experiment: Cell cycle assay (PI staining, flow cytometry); assay type: cell-based; details: treated 2 hours, cultured 24 hours
Procedure: The cells (2×10^5 cells/well) were cultured in 6-well plates for 24 hours, and then treated with the compounds of the present invention for 2 hours. The cells were placed in fresh complete media and further cultured for 24 hours. The cells were fixed overnight in 70% ethanol at 4° C., washed with cold PBS, and re-suspended in PBS solution containing RNase A (10 μg/mL) at 37° C. for 30 minutes. The suspended cells were stained with propidium iodide (PI, 50 μg/mL, Invitrogen) for 5 minutes, and flow cytometry (FACS Calibur, BD) was performed. The cell population was analyzed using ModiFit LT software.
Among the cancer cells prepared according to Experimental Example 1, breast cancer cell lines MDA-MB-231 and Hs-578T were not treated or were treated with a natural epidithiodioxopiperazine derivative gliotoxin, the cell cycle was analyzed and the cell percentage in G1 phase was calculated according to Experimental Example 4, and the results are illustrated in FIG. 2.

Row | SMILES | non-specific cytotoxicity [1] | colony formation inhibitory effect ([2]; 50 nM) | colony formation inhibitory effect ([2]; 200 nM) | colony formation inhibition [2] | migration of breast cancer cells induced to the serum-containing medium [6] | also measured
1 | CN1C(=O)C2SSC1C(=O)N2C [A2, 5,7-dimethyl-2,3-dithia-5,7-diazabicyclo[2.2.2] octane-6,8-dione] | do not exhibit non-specific cytotoxicity | equal to or somewhat superior to that in the control vehicle-treated group | remarkably so as to be observed with the naked eye in all tested cells | efficiently inhibit colony formation |  | 
2 | C=CCN1C(=O)C2SSC1C(=O)N2CC=C [A5, 5,7-diallyl-2,3-dithia-5,7-diazabicyclo[2.2.2] octane-6,8-dione] | do not exhibit non-specific cytotoxicity | equal to or somewhat superior to that in the control vehicle-treated group | remarkably so as to be observed with the naked eye in all tested cells | efficiently inhibit colony formation |  | tumor volume over time ([3]; NSG mice, A5 300 mg/kg intraperitoneally every 3 days for 3 weeks): increase in tumor volume is suppressed; tumor size compared to untreated control group ([3]; humanized NSG mice (HuNSG), A5 300 mg/kg intraperitoneally every 3 days for 3 weeks): an effect of decreasing the tumor size is exerted; inhibiting tumor growth and decreasing tumor size, A5 alone versus pembrolizumab or A5 plus pembrolizumab ([3]; humanized NSG mice (HuNSG), pembrolizumab 5 mg/kg every 5 days for 3 weeks): superior to the pembrolizumab-treated group or the experimental group concurrently treated with A5 and pembrolizumab
3 | O=C1N2CCCC23SSC12CCCN2C3=O [A10, 5a, 10a-dithio-octahydrodipyrrolo[1,2-a:1′,2′-d]pyrazine-5,10-dione] | do not exhibit non-specific cytotoxicity | colony formation was inhibited in most cancer cells |  | efficiently inhibit colony formation |  | 
4 | CN1C(=O)C2(Cc3cn(C45CC67SSC(CO)(C(=O)N6C4Nc4ccccc45)N(C)C7=O)c4ccccc34)SSC1(CO)C(=O)N2C (stereo not drawn) [chetomin] |  |  |  |  | significantly decreased | proliferation rate compared to DMSO-treated cells ([4]; chetomin 50 nM): significantly decreased; viability at 2 h [5]: ≥ 80%
5 | CN1C(=O)C23CC4=CC=CC(O)C4N2C(=O)C1(CO)SS3 (stereo not drawn) [gliotoxin] |  |  |  |  | significantly decreased | increase of cell percentage in G1 phase compared to untreated group [7]: ≥ 10%; proliferation rate compared to DMSO-treated cells ([4]; gliotoxin 100 nM): significantly decreased; viability [5]: ≥ 80%
